Assay results: US12280168B2, “Method for sanitization of a chromatography column” (Cytiva Sweden AB, priority 2019, dated 2025)

Legend:
Assay type in all cases: cell-based
[1] = tested on: Pseudomonas aeruginosa, ATCC 9027; assay: Sanitization study 3: dual adapter strokes, 100 mM PAA in flush channel, resin valve opened and closed twice, 6 day clean hold
Description: (§1) A predefined sanitization method based on peracetic acid (PAA) as sanitization agent was evaluated in an AxiChrom™ 300 column (GE Healthcare) packed with agarose beads, as used in the MabSelect™ SuRe Protein A resin (GE Healthcare), by triplicate studies using P. aeruginosa as challenging organism. All parts in contact with the process flow including the resin were pre-cleaned, challenged, sanitized and evaluated. Microbial sampling was performed at predetermined sites on the system. Flow through samples were collected from the process chamber during the run and from the flush channel, process chamber and resin valve after finishing the sanitization method. Additional flow through samples were collected after five to six days of clean hold. Test methods used are presented below. The results were evaluated against stated acceptance criteria.
(§2) Pseudomonas aeruginosa, ATCC 9027, Gram negative bacteria
(§3) 1×10^7 CFU/ml or CFU/unit (CFU=Colony forming unit) […]
(§4) TSA plates streaked with P. aeruginosa ATCC 9027 (in-house glycerol stocks) were incubated in 37° C. over night (O.N.). […] O.N. Based on measured optical densities (ODs) of the inoculates and the assumption that 1 OD≈2×10^9 CFU/mL for P. aeruginosa, calculations were made on the volumes needed of the inoculate to be added to the resin slurry suspended in 50 mM NaCl. […] The microorganism concentrations were determined with test method 5. […]

[2] = tested on: Pseudomonas aeruginosa, ATCC 9027; assay: Sanitization study 2: dual adapter strokes, 100 mM PAA in flush channel, slurry chased with 20 mM PAA, 5 day clean hold
Description: as §1, §2, §3, §4

[3] = tested on: Pseudomonas aeruginosa, ATCC 9027; assay: Sanitization study 1: AxiChrom 300 column packed with resin inoculated with challenging organism, sanitized with peracetic acid
Description: as §1, §2, §3, §4

Q: How did the “Outcome against acceptance criteria, study 3” value [1] turn out when `CC(=O)OO` [PAA, peracetic acid] was run?
A: met the acceptance criteria

Q: And the “Challenging organism found after sanitization, study 3” value ([1]; all sampling points)?
A: no challenging organism was discovered

Q: And the “Outcome against acceptance criteria, study 2” value ([2]; positive control G showed no challenging organism)?
A: did meet the acceptance criteria

Q: What about the “Result study 2, challenging organism in consolidation effluent / water rinse flowthrough after chasing slurry with 20 mM PAA” value ([2]; test method 5 viable count, samples G and J, before the sanitization method) of the same molecule?
A: 0 CFU/mL

Q: What about the “Outcome against acceptance criteria, study 1” value [3] of the same molecule?
A: did not meet the acceptance criteria

Q: What about the “Result study 1, resin after sanitization” value ([3]; test method 6 agar plate, 20 mM PAA) of the same molecule?
A: 0 CFU/g
